Laboratory results reported in PubChem BioAssay AID1919007 (Molecular Pharmacology Branch, DTP, NCI, 2023).
pIC50: −log10 of the molar value.

Test system: A498 complex spheroids with HUVEC/MSC, growth
Test: Anticancer human tumor A498 cell line growth inhibition [AhR];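 further: seven day exposure starting three days after spheroid seeding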;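 on viability, T/C: luminescence signal used as a surrogate for viable cells; luminescence viability scaled so 100% equals DMSO vehicle wells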
Conditions: for pIC50: curve of first compound; for viability, T/C: stronger effect = lower value
Summary of the method: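 Spheroids combined tumor cells with HUVEC endothelial cells and human MSCs as stroma. AhR antagonists were paired with standard or investigational drugs, each dosed in half-log steps down from near clinical Cmax, or from 10 microM where Cmax was unknown.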

[1] = second compound 0.1 µM, first compound 0.0316 µM
[2] = second compound 0.1 µM, first compound 0.1 µM
[3] = second compound 0.1 µM, first compound 0.316 µM
[4] = second compound 0.1 µM, first compound 1 µM
[5] = second compound 0.1 µM, first compound 3.16 µM
[6] = second compound 0.1 µM, first compound 10 µM
[7] = second compound 0.316 µM, first compound 0.0316 µM
[8] = second compound 0.316 µM, first compound 0.1 µM
[9] = second compound 0.316 µM, first compound 0.316 µM
[10] = second compound 0.316 µM, first compound 1 µM
[11] = second compound 0.316 µM, first compound 3.16 µM
[12] = second compound 0.316 µM, first compound 10 µM
[13] = second compound 1 µM, first compound 0.0316 µM
[14] = second compound 1 µM, first compound 0.1 µM
[15] = second compound 1 µM, first compound 0.316 µM
[16] = second compound 1 µM, first compound 1 µM
[17] = second compound 1 µM, first compound 3.16 µM
[18] = second compound 1 µM, first compound 10 µM
[19] = second compound 3.16 µM, first compound 0.0316 µM
[20] = second compound 3.16 µM, first compound 0.1 µM
[21] = second compound 3.16 µM, first compound 0.316 µM
[22] = second compound 3.16 µM, first compound 1 µM
[23] = second compound 3.16 µM, first compound 3.16 µM
[24] = second compound 3.16 µM, first compound 10 µM
[25] = second compound 10 µM, first compound 0.0316 µM
[26] = second compound 10 µM, first compound 0.1 µM
[27] = second compound 10 µM, first compound 0.316 µM
[28] = second compound 10 µM, first compound 1 µM
[29] = second compound 10 µM, first compound 3.16 µM
[30] = second compound 10 µM, first compound 10 µM

Row | Structure (SMILES) | pIC50 (second compound 0.1 µM) | pIC50 (second compound 0.316 µM) | pIC50 (second compound 1 µM) | pIC50 (second compound 3.16 µM) | pIC50 (second compound 10 µM) | viability, T/C [1] [%] | viability, T/C [2] [%] | viability, T/C [3] [%] | viability, T/C [4] [%] | viability, T/C [5] [%] | viability, T/C [6] [%] | viability, T/C [7] [%] | viability, T/C [8] [%] | viability, T/C [9] [%] | viability, T/C [10] [%] | viability, T/C [11] [%] | viability, T/C [12] [%] | viability, T/C [13] [%] | viability, T/C [14] [%] | viability, T/C [15] [%] | other results
1 | NS(=O)(=O)OCC1CC(n2ccc3c(NC4CCc5ccccc54)ncnc32)CC1O (stereo not given) + CC(CO)NC(=O)c1cc(-c2ccc(Cl)cc2)nn(-c2cnn(C)c2)c1=O | 6.57 | 6.58 | 6.51 | 6.61 | 6.71 | 94.8 | 86 | 42.4 | 30 | 22.4 | 17.7 | 90.9 | 81.8 | 42.9 | 27.2 | 23.3 | 17.6 | 92 | 82.4 | 47.5 | viability, T/C [16]: 30.8%; viability, T/C [17]: 23.4%; viability, T/C [18]: 19.8%; viability, T/C [19]: 92.5%; viability, T/C [20]: 73.6%; viability, T/C [21]: 41.5%; viability, T/C [22]: 29.3%; viability, T/C [23]: 20.6%; viability, T/C [24]: 18.3%; viability, T/C [25]: 79%; viability, T/C [26]: 64.1%; viability, T/C [27]: 39.5%; viability, T/C [28]: 26%; viability, T/C [29]: 20.9%; viability, T/C [30]: 17.6%
2 | O=C(C=Cc1cccc(S(=O)(=O)Nc2ccccc2)c1)NO + CC(CO)NC(=O)c1cc(-c2ccc(Cl)cc2)nn(-c2cnn(C)c2)c1=O | 6.09 | 6.14 | 6.15 | 6.21 | 6.53 | 82.8 | 79.2 | 63.6 | 42.5 | 32.6 | 9.53 | 80.2 | 74.3 | 64.5 | 39.4 | 31.9 | 9.41 | 80.5 | 80.8 | 61 | viability, T/C [16]: 42.2%; viability, T/C [17]: 28.1%; viability, T/C [18]: 9.7%; viability, T/C [19]: 73.1%; viability, T/C [20]: 72.8%; viability, T/C [21]: 58.6%; viability, T/C [22]: 39.6%; viability, T/C [23]: 28.8%; viability, T/C [24]: 6.66%; viability, T/C [25]: 67%; viability, T/C [26]: 56.6%; viability, T/C [27]: 53.8%; viability, T/C [28]: 33.7%; viability, T/C [29]: 25.6%; viability, T/C [30]: 6.56%
